Experimental data: patent publication US20090092662A1, “LIPOSOME FORMULATIONS OF BORONIC ACID COMPOUNDS” (priority 2007, published 2009)
Where two headings read alike, the source gives them in different places.

What was measured:
[1] = ITC drug binding study of complexing reagents to bortezomib; conditions: pH 9.5, 100 mM glycine, 30° C., bortezomib titrated into complexing reagent
Description: The binding of the various complexing reagents to bortazomib were investigated by isothermal titration calorimetry (VP-ITC, MicroCal, Northampton, Mass.) under controlled parameters. […] The pH level was checked twice and adjustments were made as necessary to within 0.2 units. The solutions were degassed for 10-15 min. […] The experiments were conducted at 30° C. […] Data processing to generate the binding parameters was performed using the software program provided by the ITC manufacture (Microcal origin v5.0).

tumor lines = conditions: range of tumor lines, NCI in vitro screen; cited from earlier work
[2] = system: human prostate cancer xenograft; conditions: human prostate xenograft model; cited from earlier work
lung cancer xenograft = lung cancer xenograft model; cited from earlier work
[3] = cited from earlier work

SMILES | K [1] [mol⁻¹] | cytotoxicity (tumor lines) | antitumor activity [2] | antitumor activity (lung cancer xenograft) | maximum tolerated dose ([3]; intravenous bolus on days 1, 4, 8, and 11 of a 3-week cycle) [mg/m^2] | maximum tolerated dose ([3]; intravenously once or twice weekly, patients with solid tumors) [mg/m^2]
OCC(O)CNCC(O)C(O)C(OC1OC(CO)C(O)C(O)C1O)C(O)CO (stereo not drawn) [Example 5] | 2366 | – | – | – | – | –
CC(C)C[C@H](NC(=O)[C@H](Cc1ccccc1)NC(=O)c1cnccn1)B(O)O [bortezomib] | – | showed cytotoxicity against a range of tumor lines | had antitumor activity | had antitumor activity | 1.56 | 1.3
